{"source": "patent US6787128B2", "about": "“Structure-improving hair care agents” (Henkel Kommanditgesellschaft auf Aktien, priority 2000, dated 2004)", "key": {"[1]": {"test_system": "Human hair (Alkinco 6634)", "experiment": "HP-DSC keratin melting point of permanent-waved hair after 1% aqueous active substance, Alkinco 6634", "conditions": "treated 10 mins. with 1% aqueous solution of active substance, rinsed, dried", "excerpt": "(§1) HP-DSC (High-Pressure Differential Scanning Calorimetry)\n(§2) Thermoanalytical investigations are particularly suitable for characterizing two-phase systems to which human hair fibers as fibrous keratins with their crystalline α-helix component and amorphous matrix component also belong. On the one hand, glass transitions and aging behavior of the amorphous matrix can be investigated, on the other hand the melting behavior of the crystalline helical phase provides important information. Thermoanalytical studies were described for the first time in 1899. The first differential thermoanalyses (DTA) of protein fibers were carried out towards the end of the fifties (F. Schwenker, J. H. Dusenbury, Text. Res. J. 1963, 30, pages 800 et seq; W. D. Felix, M. A. McDowall, H. Eyring, ibid. (1963), 33, pages 465 et seq). In the following years, various thermoanalytical measuring techniques, such as DTA, HP-DTA (high-pressure DTA) and DSC (differential scanning calorimetry) were applied to keratin fibers, for example to investigate the phenomenon of supercontraction, α-β-phase transitions of the helices or denaturing processes. Recently, the method of IIP-DSC was used to study keratin fibers, more particularly at the Deutsches Wollforschungsinstitut (German Wool Research Institute) in Aachen (F. J. Wortmann, H. Deutz, J. Appl. Polym. Sci. 1993, 48, pp. 137 et seq.). IIP-DSC rules out the problems associated with pyrolytic effects which occur in conventional DSC and the problems with data acquisition and interpretation by which DTA is attended. DSC measurements are carried out on keratins which are encapsulated with water in commercially obtainable pressure-tight measuring capsules. In the keratin/water system, a high water vapor pressure from which the HP-DSC analysis derives builds up in the encapsulated steel crucibles on heating to >100° C. […]\n(§3) Accordingly, both structural and chemical states and changes in fiber keratins and particularly in human hair fibers can be detected by dynamic differential scanning calorimetry (DSC). Under precisely defined test conditions, the processes detectable by calorimetry in human hair fibers can be recorded in the form of thermograms and used in regard to peak positions, structures and areas as an indicator for influencing order/disorder transitions through changes in inner and/or outer parameters produced, for example, by cosmetic treatment of the hair fibers. In other words, information on the strength of or damage to human hair fibers can be obtained from the endothermal peaks recorded in the thermogram of human hair fibers on the basis of peak position (transition point) and peak area (transition enthalpy). […]"}, "[2]": {"test_system": "Human hair (Alkinco 6633)", "experiment": "HP-DSC keratin melting point of permanent-waved hair after 1% aqueous active substance, Alkinco 6633", "conditions": "for Keratin melting point for Alkinco 6633: permanent-waved hair, treated 10 mins. with 1% aqueous solution of active substance, rinsed, dried", "excerpt": "as §1\nThermoanalytical investigations are particularly suitable for characterizing two-phase systems to which human hair fibers as fibrous keratins with their crystalline α-helix component and amorphous matrix component also belong. On the one hand, glass transitions and aging behavior of the amorphous matrix can be investigated, on the other hand the melting behavior of the crystalline helical phase provides important information. Thermoanalytical studies were described for the first time in 1899. The first differential thermoanalyses (DTA) of protein fibers were carried out towards the end of the fifties (F. Schwenker, J. H. Dusenbury, Text. Res. J. […], 30, pages 800 et seq; W. D. Felix, M. A. McDowall, H. Eyring, ibid. (1963), 33, pages 465 et seq). In the following years, various thermoanalytical measuring techniques, such as DTA, HP-DTA (high-pressure DTA) and DSC (differential scanning calorimetry) were applied to keratin fibers, for example to investigate the phenomenon of supercontraction, α-β-phase transitions of the helices or denaturing processes. Recently, the method of IIP-DSC was used to study keratin fibers, more particularly at the Deutsches Wollforschungsinstitut (German Wool Research Institute) in Aachen (F. J. Wortmann, H. Deutz, J. Appl. Polym. Sci. 1993, 48, pp. 137 et seq.). IIP-DSC rules out the problems associated with pyrolytic effects which occur in conventional DSC and the problems with data acquisition and interpretation by which DTA is attended. DSC measurements are carried out on keratins which are encapsulated with water in commercially obtainable pressure-tight measuring capsules. In the keratin/water system, a high water vapor pressure from which the HP-DSC analysis derives builds up in the encapsulated steel crucibles on heating to >100° C. The crucial difference between the HP-DSC thermograms of human hair fibers and normal DSC thermograms is that the endothermal peaks which reproduce the transition point and the transition enthalpy are shifted by ca. 90° C. to lower temperatures. This derives from the fact that, after diffusing into the hair fibers, the water reduces protein stability by weakening and splitting hydrogen bridge bonds and salt bonds so that the “gluing temperature” of the keratins is reduced. If only hydrogen bridges and salt bridges are dissolved by the supercontracting agent, such as water, the thermal effect is reversible (supercontraction). However, the process becomes irreversible when covalent bonds, such as disulfide bridges for example, are split. […]\nas §3"}, "[3]": {"test_system": "Human hair (Alkinco 6634)", "experiment": "HP-DSC keratin melting point after aftertreatment with conditioner (Application Example 3.1) containing pyridoxine in various concentrations", "excerpt": "as §1, §2, §3"}, "[4]": {"experiment": "Fastness to washing of oxidation hair color, overall color difference DE* after 6 washes", "set-up": "species or system human", "conditions": "colored (Poly Diadem 718), 5 mins. rinse (Application Example 3.2) containing 2% active substance, washed 6x, smaller DE* = higher fastness", "experimental": "Human hair fibers (Kerling Naturweiβ) were used. The hair fibers were intentionally damaged at their tips (2× blonding and 2× permanent waving) in order to simulate seriously damaged hair. […] After rinsing and drying, […] measurements (hair shafts and tips separated) were carried out and were repeated after 6 washes. […] The smaller DE* is, the smaller the loss of color by shampooing and the higher the fastness to washing."}}, "note": "Marks after values point to notes of the source that are not given here."}
{"smiles": "Cc1ncc(COP(=O)(O)O)c(C=O)c1O", "note": "[Pyridoxal-5-phosphate, pyridoxal-5′-phosphate]", "values": [{"measurement": "Keratin melting point for Alkinco 6634", "setting": "[1]", "value": 152.7, "unit": "°C"}, {"measurement": "Keratin melting point for Alkinco 6633", "setting": "[2]", "value": 148.3, "unit": "°C"}]}
{"smiles": "Cc1ncc(CO)c(CO)c1O", "note": "[Pyridoxine, pyridoxine]", "values": [{"measurement": "Keratin melting point for Alkinco 6634", "setting": "[1]", "value": 152.1, "unit": "°C"}, {"measurement": "Keratin melting point Alkinco 6634", "setting": "[3]; conditioner (Application Example 3.1) + 0.2% vitamin B6, 2 mins. aftertreatment of permanent-waved hair", "value": 146.2, "unit": "°C"}, {"measurement": "Keratin melting point Alkinco 6634", "setting": "[3]; conditioner (Application Example 3.1) + 0.5% vitamin B6, 2 mins. aftertreatment of permanent-waved hair", "value": 146.5, "unit": "°C"}, {"measurement": "Keratin melting point Alkinco 6634", "setting": "[3]; conditioner (Application Example 3.1) + 1.0% vitamin B6, 2 mins. aftertreatment of permanent-waved hair", "value": 147.4, "unit": "°C"}, {"measurement": "significance of (re)structuring effect by comparison with the reference sample", "setting": "[3]; conditioner + 0.2% vitamin B6, Alkinco 6634", "value": "satistically significant"}, {"measurement": "increase in melting point", "setting": "[2]; Alkinco 6633, 1% in water, versus permanent-waved reference sample, not statistically highly significant", "value": 0.5, "unit": "°C"}, {"measurement": "Keratin melting point for Alkinco 6633", "setting": "[2]", "value": "144* ° C."}, {"measurement": "DE* for normal weathered shafts", "setting": "[4]", "value": 1.8}, {"measurement": "DE* for seriously damaged tips", "setting": "[4]; tips damaged 2x blonding and 2x permanent waving", "value": 5.8}]}
{"smiles": "Cc1ncc(CO)c(CN)c1O", "note": "[Pyridoxamine, pyridoxamine]", "values": [{"measurement": "Keratin melting point for Alkinco 6634", "setting": "[1]", "value": 152.2, "unit": "°C"}, {"measurement": "Keratin melting point for Alkinco 6633", "setting": "[2]", "value": 147.9, "unit": "°C"}]}
{"smiles": "Cc1ncc(CO)c(C=O)c1O", "note": "[Pyridoxal, pyridoxal]", "values": [{"measurement": "Keratin melting point for Alkinco 6634", "setting": "[1]", "value": 152, "unit": "°C"}, {"measurement": "Keratin melting point for Alkinco 6633", "setting": "[2]", "value": 147.7, "unit": "°C"}]}
